Measurements from patent publication US20140005103A1, “SULFONAMIDE DERIVATIVES AND METHODS OF USE THEREOF FOR IMPROVING THE PHARMACOKINETICS OF A DRUG” (Merck, Sharp & Dohme Corp., priority 2012, published 2014).

Assays:
human CYP11B2 = molecular target: T1, human CYP11B2 (Homo sapiens, UniProt P19099); assay: IC50 vs CYP11B2 by aldosterone synthesis in V79 cells; assay type: cell-based; conditions: V79 cells expressing human CYP11B2, 750 nM DOC, aldosterone HTRF; test concentrations 0.5-10000 nM
T1 construct: expressed in transfected cells
T1 sequence (P19099 25-503): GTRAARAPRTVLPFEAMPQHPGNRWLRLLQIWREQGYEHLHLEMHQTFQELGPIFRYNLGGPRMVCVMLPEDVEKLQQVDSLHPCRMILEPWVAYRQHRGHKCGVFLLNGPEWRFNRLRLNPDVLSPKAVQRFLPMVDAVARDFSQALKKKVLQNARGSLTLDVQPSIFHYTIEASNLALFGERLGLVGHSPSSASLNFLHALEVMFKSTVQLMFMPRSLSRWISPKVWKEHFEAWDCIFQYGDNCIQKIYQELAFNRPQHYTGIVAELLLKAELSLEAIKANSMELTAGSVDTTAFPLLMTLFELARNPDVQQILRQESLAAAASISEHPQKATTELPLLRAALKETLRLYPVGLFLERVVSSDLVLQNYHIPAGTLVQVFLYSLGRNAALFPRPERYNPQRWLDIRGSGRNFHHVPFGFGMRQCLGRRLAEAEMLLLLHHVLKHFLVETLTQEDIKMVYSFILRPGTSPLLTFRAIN
Procedure: Determination of IC50 vs CYP11B1/CYP11B2 by Measurement of Cortisol/Aldosterone Synthesis
This assay was performed in a standard 384-well plate design using cultured V79 cells stably expressing human CYP11B1 or human CYP11B2. Test compounds at 10 concentrations (for example, 10000, 3333.3, 1111.1, 370.4, 123.5, 41.2, 13.7, 4.6, 1.5 and 0.5 nM) were added in 384-well plate after the cell-seeding procedure. The incubation substrate contains 1500 nM RSS for CYP11B1 assay/750 nM DOC for CYP11B2 assay. The
Cortisol/Aldosterone production of cell culture supernatant was determined by Cortisol/Aldosterone HTRF kit after for about 15 hours incubation at RT (protect from light). IC50 values were calculated from the percent inhibition observed for each test compound at 10 concentrations.
The assay plate was read using Envision (Perkin Elmer, Waltham, Mass.) at 665 nm and 590 nm (using Filter Barcode of 217#, 205#; Mirror Barcode of 446#).
Data are analyzed using Assay Data Analyzer. All ratio data (665 nm/590 nm) are back calculated according to the standard curve, resulting in Cortisol/Aldosterone concentrations. IC50 values are reported as the Inflection Point (IP) of a four parameter fit of the titration data.
(§1) The following equation was used to calculate the % inhibition:
% Activity=100×{1−(Sample_back calculated Cortisol/Aldosterone concentration−LC_back calculated Cortisol/Aldosterone concentration)/(HC_back calculated Cortisol/Aldosterone concentration−LC_back calculated Cortisol/Aldosterone concentration)}

CYP1A2 = molecular target: T2, CYP1A2 (Homo sapiens, UniProt P05177); assay: Cocktail CYP assay, phenacetin O-deethylation; assay type: in vitro ADME; conditions: human liver microsomes, 10 μM phenacetin; test concentrations up to 10 μM
T2 construct: 0.1 mg/mL protein human liver microsomes (BD Gentest); tissue BD Gentest; host or cells: human liver microsomes
T2 sequence (P05177 1-516): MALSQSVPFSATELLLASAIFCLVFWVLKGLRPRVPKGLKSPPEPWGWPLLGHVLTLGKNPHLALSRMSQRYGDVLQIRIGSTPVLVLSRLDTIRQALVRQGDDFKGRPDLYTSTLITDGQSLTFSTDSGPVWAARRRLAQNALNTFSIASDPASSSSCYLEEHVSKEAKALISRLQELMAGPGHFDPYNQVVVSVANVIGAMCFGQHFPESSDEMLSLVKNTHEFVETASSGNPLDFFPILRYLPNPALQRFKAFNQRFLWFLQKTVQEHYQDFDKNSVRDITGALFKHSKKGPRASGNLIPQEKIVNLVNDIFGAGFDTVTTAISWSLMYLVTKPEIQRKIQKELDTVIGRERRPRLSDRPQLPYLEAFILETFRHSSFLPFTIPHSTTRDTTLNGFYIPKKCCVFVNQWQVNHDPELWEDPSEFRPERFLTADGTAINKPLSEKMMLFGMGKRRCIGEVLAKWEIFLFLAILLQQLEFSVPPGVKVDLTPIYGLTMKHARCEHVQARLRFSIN
Procedure: (§2) Determination of IC50 in a Cocktail Assay for CYPs 1A2, 2C9, 2C19, 2D6 and 3A4
(§3) This assay was performed in a standard 96-well plate design. IC50 values were calculated from the percent inhibition observed for each test compound at 6 concentrations (for example, 0.0032, 0.016, 0.08, 0.4, 2 and 10 μM). The incubation substrate mix contains 10 μM phenacetin (1A2), 5 μM diclofenac (2C9), 30 μM mephenyloin (2C19), 5 μM dextromethorphan (2D6) and 2 μM midazolam (3A4), 0.1 mg/mL protein human liver microsomes (BD Gentest), 1 mM NAPDH, 3.3 mM MgCl2 and 100 mM potassium phosphate buffer (pH 7.4). The production of the metabolite of each probe substrate was determined after incubation for 10 min at 37° C. Quantitation of the metabolite peak area ratio against an internal standard (tolbutamide) was determined by LC/MS/MS analysis following acetonitrile treatment of the incubations.
(§4) Samples were analyzed in the MRM mode with a SCIEX API-4000 mass spectrometer (Applied Biosystems, Foster City, Calif.), with a Shimadzu LC-20 AD pump (Shimadzu corporation, Kyoto, JP) and a CTC PAL autosampler (Agilent Technologies, Switzerland). A Phenomenex, Luna, […], 100 A, 2.00×30 mm HPLC column was used for the separation. The mobile phases were: (A) 0.1% formic acid in water and (B) 0.1% formic acid in acetonitrile. The binary gradient was as follows.
(§5) The peak area ratio of the analyte to the internal standard was used to quantify the metabolite. The values of peak area ratios in the presence of test compound were compared to those of maximum or minimum controls and were expressed as % inhibition by interpolating between the maximum and minimum peak area ratios. Incubations with no inhibitor were defined as the maxima.
as §1
(§6) [1−[(X−Low control)/(High control−Low control)]]*100
(§7) For the IC50 calculation, SigmaPlot was used to plot the mean % inhibition versus the test compound concentrations and for non-linear regression analysis of the data. Depending on the range of data points defining the inhibition curve, the data may have been fit to the 4-parameter logistic equation.

CYP2D6 = molecular target: T3, CYP2D6 (Homo sapiens, UniProt P10635); assay: Cocktail CYP assay, dextromethorphan O-demethylation; assay type: in vitro ADME; conditions: human liver microsomes, 5 μM dextromethorphan; test concentrations up to 10 μM
T3 construct: 0.1 mg/mL protein human liver microsomes (BD Gentest); tissue BD Gentest; host or cells: human liver microsomes
T3 sequence (P10635 whole entry): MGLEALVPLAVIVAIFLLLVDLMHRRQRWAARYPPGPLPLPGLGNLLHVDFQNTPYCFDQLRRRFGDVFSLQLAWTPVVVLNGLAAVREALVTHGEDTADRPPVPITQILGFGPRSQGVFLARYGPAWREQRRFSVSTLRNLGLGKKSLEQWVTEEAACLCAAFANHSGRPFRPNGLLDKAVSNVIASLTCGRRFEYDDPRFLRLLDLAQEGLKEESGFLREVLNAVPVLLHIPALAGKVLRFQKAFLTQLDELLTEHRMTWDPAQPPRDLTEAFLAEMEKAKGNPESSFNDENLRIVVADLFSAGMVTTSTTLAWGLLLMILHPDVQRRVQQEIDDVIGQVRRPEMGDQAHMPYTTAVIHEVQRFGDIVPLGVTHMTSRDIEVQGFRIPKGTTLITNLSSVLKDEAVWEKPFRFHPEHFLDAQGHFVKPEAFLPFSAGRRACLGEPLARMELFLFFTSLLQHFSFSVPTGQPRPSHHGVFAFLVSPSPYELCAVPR
Procedure: as §2, §3, §4, §5, §1, §6, §7

CYP2C19 = molecular target: T4, CYP2C19 (Homo sapiens, UniProt P33261); assay: Cocktail CYP assay, mephenytoin 4'-hydroxylation; assay type: in vitro ADME; conditions: human liver microsomes, 30 μM mephenytoin; test concentrations up to 10 μM
T4 construct: 0.1 mg/mL protein human liver microsomes (BD Gentest); tissue BD Gentest; host or cells: human liver microsomes
T4 sequence (P33261 whole entry): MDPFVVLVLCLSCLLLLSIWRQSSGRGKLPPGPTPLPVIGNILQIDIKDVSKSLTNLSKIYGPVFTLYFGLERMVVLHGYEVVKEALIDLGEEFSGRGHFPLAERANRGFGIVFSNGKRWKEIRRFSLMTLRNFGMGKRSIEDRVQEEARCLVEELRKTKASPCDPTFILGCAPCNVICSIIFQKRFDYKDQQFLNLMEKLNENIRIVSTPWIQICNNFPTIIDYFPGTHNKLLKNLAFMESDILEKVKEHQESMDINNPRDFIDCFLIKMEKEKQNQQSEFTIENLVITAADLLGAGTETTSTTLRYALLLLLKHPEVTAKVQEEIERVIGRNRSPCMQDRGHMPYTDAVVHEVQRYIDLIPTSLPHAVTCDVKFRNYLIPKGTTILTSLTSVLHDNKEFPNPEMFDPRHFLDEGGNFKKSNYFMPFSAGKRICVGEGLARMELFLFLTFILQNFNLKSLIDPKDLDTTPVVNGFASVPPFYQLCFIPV
Procedure: as §2, §3, §4, §5, §1, §6, §7

CYP2C9 = molecular target: T5, CYP2C9 (Homo sapiens, UniProt P11712); assay: Cocktail CYP assay, diclofenac 4'-hydroxylation; assay type: in vitro ADME; conditions: human liver microsomes, 5 μM diclofenac; test concentrations up to 10 μM
T5 construct: 0.1 mg/mL protein human liver microsomes (BD Gentest); tissue BD Gentest; host or cells: human liver microsomes
T5 sequence (P11712 whole entry): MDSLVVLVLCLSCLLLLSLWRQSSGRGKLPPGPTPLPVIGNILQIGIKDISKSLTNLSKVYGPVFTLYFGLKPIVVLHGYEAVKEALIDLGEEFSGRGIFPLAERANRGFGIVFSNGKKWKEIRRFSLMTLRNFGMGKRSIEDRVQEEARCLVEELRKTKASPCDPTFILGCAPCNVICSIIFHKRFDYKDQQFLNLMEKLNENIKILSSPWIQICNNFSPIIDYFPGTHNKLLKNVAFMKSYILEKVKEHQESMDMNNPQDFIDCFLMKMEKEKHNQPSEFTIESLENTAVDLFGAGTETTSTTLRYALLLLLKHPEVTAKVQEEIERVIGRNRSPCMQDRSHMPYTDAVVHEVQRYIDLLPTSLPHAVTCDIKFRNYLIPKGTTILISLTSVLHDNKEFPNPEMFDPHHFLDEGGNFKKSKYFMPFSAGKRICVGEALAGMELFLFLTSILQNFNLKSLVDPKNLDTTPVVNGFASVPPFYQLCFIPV
Procedure: as §2, §3, §4, §5, §1, §6, §7

| Structure (SMILES) | IC50 (human CYP11B2) [µM] | IC50 (CYP1A2) [µM] | IC50 (CYP2D6) [µM] | IC50 (CYP2C19) [µM] | IC50 (CYP2C9) [µM] |
| --- | --- | --- | --- | --- | --- |
| C[C@H](c1ccc(F)cc1)n1cncc1C1COCC2CN(S(=O)(=O)c3cnc(Nc4ccccn4)s3)CCN21 (stereo partly drawn) [Compound 40] | 3.9 | > 10 | 2.89 | 3.05 | 0.357 |
| C[C@H](c1ccc(F)cc1)n1cncc1CN1CCN(S(=O)(=O)c2cnc(N3CCC(S(C)(=O)=O)C3)s2)CC1 (stereo partly drawn) [Compound 8] | 4 | > 10 | > 10 | > 10 | 3.5 |
| CC1CN2C[C@H](O)C[C@H]2CN1c1ncc(S(=O)(=O)N2CCN(Cc3cncn3[C@H](C)c3ccc(F)cc3)CC2)s1 (single isomer, unassigned) [Compound 22] | 1.35 | 8.66 | 3.65 | 2.29 | 5.7 |
| C[C@H](c1ccc(F)cc1)n1cncc1CN1CCN(S(=O)(=O)c2cnc(N3CC[C@@H]4NCCO[C@H]4C3)s2)CC1 [Compound 15] | 3.62 | > 10 | 3.56 | > 10 | 2.46 |
| C[C@H](c1ccc(F)cc1)n1cncc1CN1CCN(S(=O)(=O)c2cnc(N3CCN4CCC(O)[C@H]4C3)s2)CC1 (stereo partly drawn) [Compound 27] | 2.27 | > 10 | 3.85 | 6.48 | 1.77 |
| CN1CCN(c2ncc(S(=O)(=O)N3CCN(Cc4cncn4CCOc4ccc(Cl)cc4)CC3)s2)CC1 [Compound 32] | 1.03 | > 10 | 1.3 | 3.44 | 1.56 |
| C[C@H](c1ccc(F)cc1)n1cncc1CN1CCN(S(=O)(=O)c2cnc(N3CCN4C(=O)OC[C@H]4C3)s2)CC1 [Compound 26] | 9.22 | > 10 | > 10 | 7.21 | 4.27 |
| C[C@H](c1ccc(F)cc1)n1cnnc1CN1CCN(S(=O)(=O)c2cnc(N3CCN4C[C@H](O)C[C@H]4C3)s2)CC1 [Compound 42] | > 10 | > 10 | > 10 | > 10 | > 10 |
| C[C@H](c1ccc(F)cc1)n1cncc1CN1CCN(S(=O)(=O)c2cnc(NCC(F)CN)s2)CC1 (stereo partly drawn) [Compound 17] | 9.35 | 2.19 | 3.38 | 2.25 | 2.45 |
| Cc1ccc(C2(n3cncc3CN3CCN(S(=O)(=O)c4cnc(N5CCN(C)CC5)s4)CC3)CC2)nc1 [Compound 31] | > 10 | > 10 | > 10 | > 10 | > 10 |
| C[C@H](c1ccc(F)cc1)n1cncc1CN1CCN(S(=O)(=O)c2cncc(N3CCNCC3)c2)CC1 [Compound 29] | 4.37 | > 10 | > 10 | > 10 | > 10 |
| C[C@H](c1ccc(F)cc1)n1cncc1CN1CCN(S(=O)(=O)c2cnc(N3CCC4(CC3)CNC(=O)N4)s2)CC1 [Compound 3] | > 10 | > 10 | 2.7 | > 10 | 1.47 |
